Data from patent US20230390278A1, “SYNERGISTIC COMBINATIONS OF VALPROOIC ACID AND QUINACRINE” (VESTLANDETS INNOVASJONSSELSKAP AS, priority 2020, published 2023).
Like-named read-outs stand apart in the source and are kept apart here.

Columns and labels:
[1] = Plasma levels of QC and VPA in blood of off-label treated AML patients, measured by LC/MS; type: in vivo, human; details: for concentration at 3 h: 3 h after intake; for concentration at 25 day: Patient 1, day 25, QC 200 mg/day, VPA 600 + 1200 mg/day; for concentration at 64 day: Patient 1, day 64, QC 300 mg/day; for concentration at 163 day: Patient 1, day 163, QC 400 mg/day; for concentration at 65 day: Patient 2, day 65, QC 200 mg/day
Description: The plasma concentration may be the blood plasma concentration or bone marrow plasma concentration. […] Plasma concentrations may be determined by liquid chromatography-mass spectrometry (LC-MS).

[2] = Plasma levels of QC and VPA in bone marrow (BM) of off-label treated AML patients, measured by LC/MS; type: in vivo, human
[3] = human, oral, Plasma VPA, VPA 300 + 600 mg/day
[4] = human, oral, VPA 300 + 600 mg/day, read-out: Plasma QC

Q: What does the source list for `CCCC(CCC)C(=O)O` [VPA, 2-propylvaleric acid]?
A: Plasma VPA ([1]; Patient 1, day 128, QC 400 mg/day, VPA 600 + 900 mg/day, neg: negative): neg; concentration at 3 h ([1]; human, oral, Plasma VPA, Patient 1, day 1, QC 100 mg/day, VPA 300 + 300 mg/day): 17100 nM; concentration at 25 day ([1]; human, oral, Plasma VPA): 43000 nM; concentration at 64 day ([1]; human, oral, Plasma VPA, VPA 600 + 900 mg/day): 25600 nM; concentration at 163 day [1, 3]: 119000 nM; concentration at 3 h ([1]; human, oral, Plasma VPA, Patient 2, day 1, QC 100 mg/day, VPA 300 + 600 mg/day): 156000 nM; concentration at 15 day ([1]; human, oral, Plasma VPA, Patient 2, day 15, QC 200 mg/day, VPA 600 + 600 mg/day): 442000 nM; concentration at 65 day [1, 3]: 341000 nM; concentration at 3 h ([1]; human, oral, Plasma VPA, Patient 3, day 1, QC 100 mg/day, VPA 300 + 300 mg/day): 120000 nM; concentration at 15 day ([1]; human, oral, Plasma VPA, Patient 3, day 15, QC 300 mg/day, VPA 300 + 600 mg/day): 41300 nM

Q: For `CCN(CC)CCCC(C)Nc1c2ccc(Cl)cc2nc2ccc(OC)cc12` (racemic) [QC, (RS)-N′-(6-chloro-2-methoxy-acridin-9-yl)-N, N-diethyl-pentane-1,4-diamine], which concentration at 3 h ([1]; human, oral, Patient 1, day 1, QC 100 mg/day, VPA 300 + 300 mg/day, read-out: Plasma QC) is on record?
A: The concentration at 3 h was 4 nM.

Q: And the concentration at 25 day ([1]; human, oral, read-out: Plasma QC)?
A: The concentration at 25 day was 52 nM.

Q: What about the concentration at 64 day ([1]; human, oral, VPA 600 + 900 mg/day, read-out: Plasma QC) of the same compound?
A: Its concentration at 64 day is 138 nM.

Q: What about the concentration at 128 day ([1]; human, oral, Patient 1, day 128, QC 400 mg/day, VPA 600 + 900 mg/day) of the same compound?
A: The concentration at 128 day was 38 nM.

Q: What about the concentration at 163 day [1, 4] of the same compound?
A: The concentration at 163 day was 38 nM.

Q: And the concentration at 3 h ([1]; human, oral, Patient 2, day 1, QC 100 mg/day, VPA 300 + 600 mg/day, read-out: Plasma QC)?
A: Its concentration at 3 h is 8 nM.

Q: What about the concentration at 15 day ([1]; human, oral, Patient 2, day 15, QC 200 mg/day, VPA 600 + 600 mg/day, read-out: Plasma QC) of the same compound?
A: The concentration at 15 day was 18 nM.

Q: What about the concentration at 65 day [1, 4] of the same compound?
A: The concentration at 65 day was 130 nM.

Q: And the concentration at 3 h ([1]; human, oral, Patient 3, day 1, QC 100 mg/day, VPA 300 + 300 mg/day, read-out: Plasma QC)?
A: The concentration at 3 h was 8 nM.

Q: What about the concentration at 15 day ([1]; human, oral, Patient 3, day 15, QC 300 mg/day, VPA 300 + 600 mg/day, read-out: Plasma QC) of the same compound?
A: The concentration at 15 day was 300 nM.

Q: What about the “Plasma QC, BM” value ([2]; Patient 1, day 163, QC 400 mg/day, VPA 300 + 600 mg/day) of the same compound?
A: Its value is “BM: 44 nM”.

Q: And the “Plasma QC, BM” value ([2]; Patient 2, day 15, QC 200 mg/day, VPA 600 + 600 mg/day)?
A: The value was “BM: 32 nM”.

Q: And the “Plasma QC, BM” value ([2]; Patient 2, day 65, QC 200 mg/day, VPA 300 + 600 mg/day)?
A: The value was “BM: 332 nM”.
